Measurements from US8865748B2, “Compounds and compositions for stabilizing hypoxia inducible factor-2 alpha as a method for treating cancer” (Akebia Therapeutics Inc., priority 2011, dated 2014).

What was measured:
sVEGFR-1 = sVEGFR-1 production by human peripheral blood monocytes (ELISA, real-time PCR); type: cell-based; settings: monocytes stimulated with 100 ng/mL GM-CSF, presence vs. absence of 10 μM stabilizer, FIG. 11B
Protocol: Human peripheral blood mononuclear cells (PBMCs) were isolated from fresh peripheral blood leukocyte source packs (American Red Cross, Columbus Ohio) by density gradient centrifugation over Lymphocyte Separation Medium (Cellgro). Monocytes were purified from total PBMCs by layering over FBS. Monocytes were cultured in endotoxin-free RPMI-1640 supplemented with 1% fetal bovine serum (FBS), 0.1% human serum albumin (HSA), and 10 μg/mL of the endotoxin inhibitor polymyxin B. In some experiments, freshly isolated monocytes were differentiated into macrophages by three-day culture in media containing 10% FBS, 1% PSA (penicillin G sodium, streptomycin sulfate, and amphotericin B), and 20 ng/mL M-CSF. Macrophages were serum-starved for 2 hours prior to stimulation. Monocytes or monocyte-derived macrophages were treated for 24 hours with 10 ng/mL GM-CSF, 10 μM disclosed HIF-2α stabilizer, or an equivalent volume of the vehicle controls (PBS or DMSO, respectively). Cell-free culture supernatants were harvested and analyzed for VEGF or sVEGFR-1 by ELISA (R&D Systems).
Human monocytes were left untreated or were stimulated with 100 ng/mL GM-CSF at normoxia or at 0.5% O2. At various time-points, cells were harvested in Trizol reagent (Invitrogen) and RNA was extracted in chloroform and then purified using the RNeasy Minikit (Qiagen). […] Data were analyzed according to the comparative threshold method and normalized against the β-actin internal control transcript. Results are semi-quantitative and represent the fold difference in transcript levels in a particular sample as compared with levels in untreated cells from the same donor.
Since monocyte production of VEGF was dependent on HIF-1α, the inventors herein determined whether selective stabilization of HIF-1α via inhibition of PHD2 would increase monocyte production of VEGF but not sVEGFR-1. […]

B16F10 melanoma tumors = assay: Murine melanoma tumor model (B16F10 in C57BL/6 mice); type: in vivo; settings: for tumor growth: FIG. 14A
Protocol: Mice were injected with 1×10^5 B16F10 murine melanoma cells murine subcutaneously on the left flank. Once tumors become palpable (approximately 5 days), mice were randomly allocated to receive treatment with either: 20% polyethylene glycol (PEG) in 5% […] (vehicle control for the disclosed HIF-2α stabilizer) and PBS (vehicle control for GM-CSF), 20% PEG and GM-CSF (100 ng per mouse in a 50 μL volume), the disclosed HIF-2α stabilizer (17.5 mg/kg in a 100 μL volume) and PBS, or the disclosed HIF-2α stabilizer and GM-CSF (same doses). The PBS and GM-CSF were administered intratumorally, while the 20% PEG and the disclosed HIF-2α stabilizer were administered intraperitoneally. Mice were treated 3 times per week until tumors reached a size of 20 mm in any dimension (approximately 2.5 weeks), at which point mice were euthanized, in accordance with institutional policy. Tumor diameters were measured 3 times per week with calipers, and tumor volumes were calculated as follows: Tumor volume=0.5×[(large diameter)×(small diameter)^2].
6-8-week-old C57BL/6 mice were injected with 1×10^5 B16F10 murine melanoma cells murine subcutaneously on the left flank. Once tumors become palpable (approximately 5 days), mice were randomly allocated to receive treatment with either: 20% PEG-400 in 5% sucrose (vehicle for disclosed HIF-2α stabilizer) and PBS (vehicle for GM-CSF), 20% PEG-400 and GM-CSF (100 ng per mouse in a 50 μL volume), disclosed HIF-2α stabilizer (17.5 mg/kg mouse weight in a 100 μL volume) and PBS, or the disclosed HIF-2α stabilizer and GM-CSF (same concentrations). The disclosed HIF-2α stabilizer (or the vehicle control) was administered intraperitoneally, while GM-CSF (or the vehicle control) was administered intratumorally. Mice were treated […] 3 times per week until tumors reached a size of 20 mm in any dimension (approximately 2.5 weeks), at which point mice were be euthanized, in accordance with institutional policy. Tumor diameters were measured 3 times per week with calipers, and tumor volumes will be calculated as follows: Tumor volume=0.5×[(large diameter)×(small diameter)^2]. For experiments analyzing the effect of neutralizing sVEGFR-1 in combination with disclosed HIF-2α stabilizer treatment, mice were treated intraperitoneally 3×/week with either disclosed HIF-2α stabilizer or vehicle control, and intratumorally with either 4 μg anti-VEGFR-1 neutralizing antibody (R&D Systems) or 4 μg polyclonal goat IgG isotype control (Santa Cruz Biotechnology) in a 50 μL volume. All protocols were approved by the Ohio State University Animal Care and Use Committee, and mice were treated in accordance with institutional guidelines for animal care.
The ANOVA test was used to compare independent measurements between multiple treatment groups. The data was log-transformed to normalize the variance across groups. P-values were adjusted using the Holm's procedure to conserve the type I error at 0.05 due to the multiple comparisons. For tumor growth data, changes in tumor volume over time were assessed via a longitudinal model. Tumor values were log-transformed, and estimated slopes (changes in tumor volume over time) were calculated with 95% confidence intervals. Estimated differences in tumor volume were calculated by a random-effects regression of the longitudinal data. For all analyses, p≦0.05 was considered statistically significant.
To confirm that the modulation of tumor growth and angiogenesis was due to sVEGFR-1 production in response to the disclosed HIF-2α stabilizer, mice were treated with the disclosed HIF-2α stabilizer in the presence or absence of an sVEGFR-1 neutralizing Ab.
6-8-week-old C57BL/6 mice or SCID mice were injected with 1×10^5 B16F10 murine melanoma cells or 1×10^6 A375 human melanoma cells, respectively, subcutaneously on the left flank. […]

O=C(O)CNC(=O)c1ncc(-c2cccc(F)c2)cc1O [disclosed HIF-2α stabilizer, {[5-(3-Fluorophenyl)-3-hydroxypyridine-2-carbonyl]amino}acetic acid]
sVEGFR-1 production, protein level (sVEGFR-1; p=0.007): increased significantly
sVEGFR-1 production, transcript level (sVEGFR-1; p=0.033): increased significantly
tumor growth (tumor volume) (B16F10 melanoma tumors; FIG. 3, stabilizer 17 mg/kg I.P., GM-CSF 100 ng per mouse I.T., 3 times per week, vs. PBS control): reduces tumor growth
increase in median survival (B16F10 melanoma tumors; FIG. 12B, median survival defined as the time to a tumor diameter of 20 mm, 17.5 mg/kg intraperitoneal 3x/week, p=0.023): 3 days
average tumor volumes vs. vehicle controls (B16F10 melanoma tumors; day 16 of treatment, GM-CSF 100 ng/mouse intratumoral or stabilizer 17.5 mg/kg intraperitoneal, 3x/week, each p<0.001): significantly smaller
tumor growth (B16F10 melanoma tumors; mice also treated with the anti-sVEGFR-1 neutralizing antibody, p=0.245): no effect on tumor growth
tumor growth (B16F10 melanoma tumors; mice treated with an isotype control antibody, p<0.001): decreased tumor growth
